{"source": "patent US20250034186A1", "about": "“ANTIVIRAL COMPOUNDS” (priority 2020, published 2025)", "key": {"[1]": {"test_system": "Dengue serotype 2 New Guinea C (NGC) strain", "test": "DENV-2 Huh-7 EC50", "format": "cell-based", "settings": "Dengue virus, Huh7 cells, 48 hours, qPCR", "experimental": "Huh7 (Human hepatocarcinoma 7) cells were maintained in 10% FCS-containing DMEM complete media. On the day of the assay, cells were trypsinized (0.1% Trypsin-EDTA), washed and infected for 2 hours in serum-free DMEM with Dengue serotype 2 New Guinea C (NGC) strain at MOI=0.1 with gentle agitation at 37° C. After 2 hours, cells were washed with serum-free media and suspended in 10% FCS-containing DMEM (Gibco, supplemented with sodium pyruvate, NEAA, Penicillin-Streptomycin). […] were plated in triplicate in 96-well plates with compounds dispensed at graded doses (Hewlett-Packard D300 Digital Dispenser). All wells were normalized to 0.25% DMSO. At 48 hours, cells were washed with 1×PBS and all supernatants removed. Total RNA was extracted using RNEasy 96 plates (Qiagen) and used to generate first-strand cDNA using XLT cDNA 5× Supermix (QuantaBio). cDNA was used as a template in a Taqman qPCR duplex reaction specific to DENV2 viral and GAPDH gene expression. EC50 values were determined using Prism Graphpad software, with normalization to a positive control and no compound negative control wells."}, "[2]": {"test": "NHBE in-vitro intracellular triphosphate formation", "format": "in vitro ADME, human", "settings": "10 μM, up to 26 h, compared to compound 2 and/or 6 (FIG. 1)", "experimental": "In-vitro intracellular triphosphate formation was measured for the compound of Formula I and compound 6 using the following protocol. Normal human bronchial airway epithelial cells (NHBEs) (0.25 million cells/well) were continuously incubated with 10 μM of compound for 26 hours. At select time points (2, 4, 6, and 26 h), the extracellular medium was removed from the well and the cells were washed twice with 2 mL of ice-cold 0.9% normal saline and extracted into 0.5 mL ice-cold 70% methanol containing 100 nM 2-chloro-adenosine-5′-triphosphate (Sigma-Aldrich, St. Louis, MO) as an internal standard. Samples were stored overnight at −20° C. to facilitate nucleotide extraction, centrifuged at 15,000×g for 15 minutes and then supernatant was transferred to clean tubes for drying in a MiVac Duo concentrator (Genevac, Gardiner, NY). Dried samples were then reconstituted in mobile phase A containing 3 mM ammonium formate (pH 5.0) with 10 mM dimethylhexylamine (DMHA) in water for analysis by LC-MS/MS."}}}
{"compound": "C[C@H](N[P@](=O)(OC[C@@]1(C#N)O[C@@H](c2ccc3c(N)ncnn23)[C@H](O)[C@@H]1O)Oc1ccccc1)C(=O)OC1CCCCC1", "note": "[Formula I, cyclohexyl ((S)-(((2R,3S,4R,5S)-5-(4-aminopyrrolo[2,1-f][1,2,4]triazin-7-yl)-2-cyano-3,4-dihydroxytetrahydrofuran-2-yl)methoxy)(phenoxy)phosphoryl)-L-alaninate]", "values": [{"measurement": "EC50", "setting": "[1]", "value": 1630, "unit": "nM"}, {"measurement": "in-vitro intracellular NTP formation in NHBEs", "setting": "[2]", "value": "equal to or better"}]}
